Assay results as given in the supplement of paper PMC10307832.

Columns and labels:
Experiment in all cases: relative viability (nuclei count vs DMSO), 5 days (fraction); higher = more cells survive
[1] = compound: C=CC(=O)Nc1cc(-n2c(=O)ccc3cnc4ccc(-c5ccc(NS(C)(=O)=O)cc5)cc4c32)ccc1C [BMX-IN-1] + CC(=O)c1c(C)c2cnc(Nc3ccc(N4CCNCC4)cn3)nc2n(C2CCCC2)c1=O [Palbociclib] (partner 0.5 µM)
In short: (§1)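 Each reported value is a median over duplicate plates. It expresses relative viability: treated-well nuclei count divided by vehicle-well nuclei count. Lung cancer cell lines in 1536-well plates were dosed by pin tool a day after seeding, alone with one drug or with a fixed anchor-drug dose plus five library-drug doses (not always all listed) in √10 steps, and nuclei were counted after 5 days.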

[2] = compound: C=CC(=O)Nc1cc(-n2c(=O)ccc3cnc4ccc(-c5ccc(NS(C)(=O)=O)cc5)cc4c32)ccc1C [BMX-IN-1] + O=C(CCCCCCC(=O)Nc1ccccc1)NO [Vorinostat] (partner 1 µM)
In short: as §1

[3] = compound: C=CCc1cccc(/C=N/NC(=O)CN2CCN(Cc3ccccc3)CC2)c1O [PAC-1] + O=C(CCCCCCC(=O)Nc1ccccc1)NO [Vorinostat] (partner 1 µM)
In short: as §1

[4] = compound: C=CCc1cccc(/C=N/NC(=O)CN2CCN(Cc3ccccc3)CC2)c1O [PAC-1] + NC(=O)Nc1cc(-c2cccc(F)c2)sc1C(=O)N[C@H]1CCCNC1 [AZD7762] (partner 0.2 µM)
In short: as §1

[5] = compound: C=CC(=O)Nc1cc(-n2c(=O)ccc3cnc4ccc(-c5ccc(NS(C)(=O)=O)cc5)cc4c32)ccc1C [BMX-IN-1] + CC1(C)CCC(c2ccc(Cl)cc2)=C(CN2CCN(c3ccc(C(=O)NS(=O)(=O)c4ccc(N[C@H](CCN5CCOCC5)CSc5ccccc5)c(S(=O)(=O)C(F)(F)F)c4)cc3)CC2)C1 [Navitoclax] (partner 0.5 µM)
In short: as §1

| Cell Line | relative viability ([1]; first compound 0.2 µM) | relative viability ([1]; first compound 0.6325 µM) | relative viability ([1]; first compound 2 µM) | relative viability ([2]; first compound 0.2 µM) | relative viability ([2]; first compound 0.6325 µM) | relative viability ([2]; first compound 2 µM) | relative viability ([3]; first compound 0.02 µM) | relative viability ([3]; first compound 0.06325 µM) | relative viability ([3]; first compound 0.2 µM) | relative viability ([3]; first compound 2 µM) | relative viability ([4]; first compound 0.02 µM) | relative viability ([4]; first compound 0.06325 µM) | relative viability ([4]; first compound 0.2 µM) | relative viability ([4]; first compound 2 µM) | relative viability ([5]; first compound 0.2 µM) | relative viability ([5]; first compound 0.6325 µM) | relative viability ([5]; first compound 2 µM) | relative viability ([1]; first compound 0.02 µM) | relative viability ([2]; first compound 0.02 µM) | relative viability ([5]; first compound 0.02 µM) |
| --- | --- | --- | --- | --- | --- | --- | --- | --- | --- | --- | --- | --- | --- | --- | --- | --- | --- | --- | --- | --- |
| LOU-NH91 | 0.541 | 0.488 | 0.546 | 0.939 | 1.05 | 0.915 | 0.876 | 0.937 | 0.897 | 0.887 | 0.742 | 0.761 | 0.768 | 0.71 | 0.695 | 0.773 | 0.683 |  |  |  |
| PC-3 [JPC-3] | 0.598 | 0.546 | 0.521 | 0.831 | 0.916 | 0.766 | 0.82 | 0.915 | 1.06 | 0.832 | 0.848 | 0.985 | 0.883 | 0.877 | 0.823 | 0.746 | 0.871 | 0.544 | 0.953 | 0.728 |
| HCC-15 | 0.762 | 0.84 | 0.802 | 0.93 | 0.86 | 0.869 | 0.782 | 0.861 | 0.769 | 0.825 | 1.34 | 1.35 | 0.884 | 1.35 | 0.726 | 0.706 | 0.73 | 0.844 | 0.833 | 0.768 |
| NCI-H2087 | 0.229 | 0.252 | 0.257 | 1.12 | 0.837 | 0.575 | 0.678 | 0.665 | 0.722 | 0.858 | 1.36 | 1.4 | 1.09 | 1.44 | 1.18 | 1.01 | 1.08 | 0.214 | 0.66 | 1.03 |
| NCI-H3122 | 0.204 | 0.174 | 0.164 | 1.1 | 0.902 | 1.14 | 1.01 | 0.972 | 0.787 | 0.83 | 0.896 | 0.906 | 0.93 | 0.988 | 1.06 | 1.02 | 1.05 | 0.193 | 0.938 | 1.1 |
| NCI-H838 | 0.198 | 0.222 | 0.24 | 0.64 | 0.728 | 0.73 | 0.68 | 0.72 | 0.782 | 0.745 | 0.972 | 0.964 | 0.936 | 0.925 | 1.33 | 1.21 | 1.18 | 0.241 | 0.827 | 1.39 |
| NCI-H441 | 0.205 | 0.234 | 0.21 | 1.03 | 0.903 | 0.778 | 0.87 | 1.05 | 0.82 | 0.761 | 0.994 | 1.15 | 1.19 | 1.1 | 0.85 | 1.08 | 0.755 | 0.199 | 0.691 | 0.466 |
| NCI-H2126 | 0.345 | 0.363 | 0.322 | 0.697 | 0.864 | 0.786 | 0.733 | 0.785 | 0.803 | 0.763 | 1.04 | 0.993 | 0.963 | 1.05 | 0.945 | 0.876 | 0.907 | 0.379 | 0.829 | 0.836 |
| NCI-H1651 | 0.559 | 0.511 | 0.533 | 0.585 | 0.604 | 0.552 | 0.544 | 0.531 | 0.489 | 0.588 | 0.44 | 0.358 | 0.447 | 0.467 | 1.2 | 1.02 | 1.04 | 0.598 | 0.481 | 1.24 |
| NCI-H1734 | 0.375 | 0.386 | 0.329 | 0.927 | 0.866 | 0.902 | 0.825 | 0.792 | 0.767 | 0.895 | 0.515 | 0.615 | 0.532 | 0.546 | 0.907 | 0.953 | 0.949 | 0.37 | 0.81 | 1.01 |
| NCI-H1915 | 0.543 | 0.555 | 0.538 | 0.531 | 0.564 | 0.53 | 0.507 | 0.506 | 0.427 | 0.562 | 0.724 | 0.681 | 0.546 | 0.695 | 0.793 | 0.764 | 0.777 | 0.54 | 0.576 | 0.808 |
| NCI-H1755 | 0.439 | 0.509 | 0.422 | 0.849 | 0.812 | 0.8 | 0.777 | 0.787 | 0.774 | 0.718 | 0.45 | 0.45 | 0.426 | 0.415 | 1.05 | 1.07 | 1.03 | 0.394 | 0.72 | 1.01 |
| EPLC-272H | 0.324 | 0.323 | 0.317 | 0.288 | 0.417 | 0.383 | 0.457 | 0.3 | 0.309 | 0.225 | 0.177 | 0.295 | 0.134 | 0.22 | 1.22 | 1.08 | 1.18 | 0.323 | 0.351 | 1.25 |
| NCI-H1793 | 0.35 | 0.285 | 0.307 | 0.563 | 0.856 | 0.849 | 0.653 | 0.814 | 0.741 | 0.894 | 0.501 | 0.587 | 0.547 | 0.568 | 0.363 | 0.483 | 0.38 | 0.38 | 0.998 | 0.454 |
| HCC-827 | 0.409 | 0.503 | 0.467 | 0.872 | 1.11 | 0.798 | 0.903 | 0.857 | 0.752 | 0.841 | 0.239 | 0.191 | 0.235 | 0.237 | 0.992 | 1 | 1.03 | 0.486 | 0.485 | 1.02 |
